For this experiment, the system named is L1210 leukemia ip in BDF1 mice, survival T/C. Put plainly: NCI In Vivo Anticancer Drug Screen. Data for tumor model L1210 Leukemia (intraperitoneal) in B6D2F1 (BDF1) mice. The conditions noted are these: endpoint: mean survival time, higher = longer survival. In outline: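 Mice bearing the transplanted tumor received compound or vehicle. Survival of the treated group was divided by that of the vehicle-treated control group to give the ratio.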

[1] abbreviates: dose: 100.0 mg/kg/injection, schedule: Q01DX009 (ip), vehicle: saline.
The mark [2] stands for this setting: dose: 100.0 mg/kg/injection, schedule: Q04DX002 (ip), vehicle: saline.
The mark [3] stands for this setting: dose: 200.0 mg/kg/injection, schedule: Q04DX002 (ip), vehicle: saline.
Where [4] appears, read: dose: 100.0 mg/kg/injection, schedule: Q01DX001 (ip), vehicle: saline.
[5] abbreviates: dose: 200.0 mg/kg/injection, schedule: Q01DX001 (ip), vehicle: saline.
[6] abbreviates: dose: 200.0 mg/kg/injection, schedule: Q01DX009 (ip), vehicle: saline.
Setting [7] is: dose: 400.0 mg/kg/injection, schedule: Q01DX001 (ip), vehicle: saline.
The mark [8] stands for this setting: dose: 400.0 mg/kg/injection, schedule: Q01DX009 (ip), vehicle: saline.
The mark [9] stands for this setting: dose: 100.0 mg/kg/injection, schedule: Q01DX009 (ip), vehicle: saline with Tween-80.
Setting [10] is: dose: 100.0 mg/kg/injection, schedule: Q04DX003 (ip), vehicle: saline with Tween-80.
Where [11] appears, read: dose: 200.0 mg/kg/injection, schedule: Q01DX009 (ip), vehicle: saline with Tween-80.
The mark [12] stands for this setting: dose: 200.0 mg/kg/injection, schedule: Q04DX003 (ip), vehicle: saline with Tween-80.
The mark [13] stands for this setting: dose: 400.0 mg/kg/injection, schedule: Q01DX009 (ip), vehicle: saline with Tween-80.
Where [14] appears, read: dose: 100.0 mg/kg/injection, schedule: Q04DX003 (ip), vehicle: saline.

Inconclusive results and toxic doses are left out.

Regarding `CCCC(CCN(C)C)(CNC(=O)CN(CC)CC)c1cccc2ccccc12` (stereo not drawn), the T/C is, setting by setting: (dose: 50.0 mg/kg/injection, schedule: Q04DX002 (ip), vehicle: saline) 105 % of control; under setting [1], 99 % of control; under setting [2], 100 % of control; under setting [3], 100 % of control.
As for `CCCNC(=O)/C=C\C(=O)O`, the T/C is 108 % of control under setting [4]; 93 % of control under setting [1]; 101 % of control under setting [5]; 90 % of control under setting [6]; 106 % of control under setting [7]; 95 % of control under setting [8].
Turning to `COc1ccccc1C1CCCCCC1O` (stereo not drawn), the T/C by setting is: under setting [1], 98 % of control; under setting [6], 98 % of control; under setting [8], 98 % of control.
On to `O=C1c2ccccc2C(=O)N1CC(O)CCl` (stereo not drawn), for which the T/C was 93 % of control (dose: 50.0 mg/kg/injection, schedule: Q01DX009 (ip), vehicle: saline with Tween-80); 91 % of control (dose: 50.0 mg/kg/injection, schedule: Q04DX003 (ip), vehicle: saline with Tween-80); 93 % of control under setting [9]; 102 % of control under setting [10]; 90 % of control under setting [11]; 96 % of control under setting [12].
In the case of `Cc1nc(=S)[nH][nH]1`, the T/C reads like this: under setting [9], 102 % of control; under setting [2], 103 % of control; under setting [11], 122 % of control; under setting [3], 94 % of control; under setting [13], 96 % of control; (dose: 400.0 mg/kg/injection, schedule: Q04DX002 (ip), vehicle: saline) 87 % of control.
On to `Cc1ccc(S(=O)(=O)NC(c2ccccc2)(c2ccccc2)c2ccccc2)cc1`, for which the T/C reads like this: under setting [9], 96 % of control; (dose: 100.0 mg/kg/injection, schedule: Q04DX003 (ip), vehicle: acetone) 96 % of control; under setting [11], 88 % of control; (dose: 200.0 mg/kg/injection, schedule: Q04DX003 (ip), vehicle: acetone) 95 % of control; under setting [13], 93 % of control; (dose: 400.0 mg/kg/injection, schedule: Q04DX003 (ip), vehicle: acetone) 96 % of control.
For the compound `CC(=O)OC(COS(=O)(=O)c1ccc(C)cc1)C1OCOC(COS(=O)(=O)c2ccc(C)cc2)C1OC(C)=O` (stereo not drawn), the T/C (dose: 100.0 mg/kg/injection, schedule: Q01DX001 (ip), vehicle: saline with Tween-80) was 92 % of control; the T/C (dose: 200.0 mg/kg/injection, schedule: Q01DX001 (ip), vehicle: saline with Tween-80) is 93 % of control; the T/C (dose: 400.0 mg/kg/injection, schedule: Q01DX001 (ip), vehicle: saline with Tween-80) is 95 % of control.
`O=C(C[n+]1cccc(C(=O)Nc2ccccc2)c1)Nc1ccccc1`: the T/C under setting [14] is 95 % of control.
As for `Cc1ccc2c(c1C)C(=O)C(=O)N2`, the T/C reads like this: (dose: 50.0 mg/kg/injection, schedule: Q01DX001 (ip), vehicle: saline) 110 % of control; under setting [4], 104 % of control; under setting [5], 110 % of control; under setting [7], 104 % of control.
On to `COc1cc(C#N)ccc1O`, for which the T/C (dose: 100.0 mg/kg/injection, schedule: Q01DX009 (ip), vehicle: gum acacia) is 106 % of control; the T/C (dose: 100.0 mg/kg/injection, schedule: Q04DX003 (ip), vehicle: gum acacia) is 103 % of control; the T/C (dose: 200.0 mg/kg/injection, schedule: Q01DX009 (ip), vehicle: gum acacia) is 106 % of control; the T/C (dose: 200.0 mg/kg/injection, schedule: Q04DX003 (ip), vehicle: gum acacia) is 100 % of control; the T/C (dose: 400.0 mg/kg/injection, schedule: Q01DX009 (ip), vehicle: gum acacia) is 90 % of control; the T/C (dose: 400.0 mg/kg/injection, schedule: Q04DX003 (ip), vehicle: gum acacia) is 94 % of control.
Regarding `CN(C)CCS(=O)(=O)CCc1ccccc1`, the T/C is 106 % of control (dose: 75.0 mg/kg/injection, schedule: Q01DX001 (ip), vehicle: carboxymethylcellulose (CMC)); 98 % of control (dose: 150.0 mg/kg/injection, schedule: Q01DX001 (ip), vehicle: carboxymethylcellulose (CMC)); 101 % of control (dose: 300.0 mg/kg/injection, schedule: Q01DX001 (ip), vehicle: carboxymethylcellulose (CMC)).
For `CC1NNC(=O)c2ccccc21` (stereo not drawn), the T/C by setting is: under setting [4], 95 % of control; under setting [5], 96 % of control; under setting [7], 94 % of control.
`Cc1ccc(NC(=O)N(CCCl)N=O)c(C)c1`: the T/C was 180 % of control (dose: 10.0 mg/kg/injection, schedule: Q01DX009 (ip), vehicle: other); 241 % of control (dose: 16.0 mg/kg/injection, schedule: Q01DX009 (ip), vehicle: other); 158 % of control (dose: 24.0 mg/kg/injection, schedule: Q01DX009 (ip), vehicle: other); 153 % of control (dose: 25.0 mg/kg/injection, schedule: Q01DX001 (ip), vehicle: other); 158 % of control (dose: 50.0 mg/kg/injection, schedule: Q01DX001 (ip), vehicle: other); 101 % of control (dose: 100.0 mg/kg/injection, schedule: Q01DX001 (ip), vehicle: other).
As for `COc1ccc(OC(=O)N2C=Cc3ccccc3C2C#N)cc1` (stereo not drawn), the T/C runs as follows: under setting [4], 93 % of control; under setting [14], 105 % of control; under setting [5], 97 % of control; (dose: 200.0 mg/kg/injection, schedule: Q04DX003 (ip), vehicle: saline) 97 % of control; under setting [7], 91 % of control; (dose: 400.0 mg/kg/injection, schedule: Q04DX003 (ip), vehicle: saline) 97 % of control.
Regarding `Nc1cccc(OCCCOc2ccccc2)c1`, the T/C by setting is: (dose: 100.0 mg/kg/injection, schedule: Q01DX001 (ip), vehicle: Klucel (hydroxypropylcellulose) (HPC)) 94 % of control; (dose: 200.0 mg/kg/injection, schedule: Q01DX001 (ip), vehicle: Klucel (hydroxypropylcellulose) (HPC)) 97 % of control; (dose: 400.0 mg/kg/injection, schedule: Q01DX001 (ip), vehicle: Klucel (hydroxypropylcellulose) (HPC)) 94 % of control.
For the compound `Cc1cccc(NC(=O)Oc2ccc3c(C)cc(=O)oc3c2)c1`, the T/C was 110 % of control (dose: 100.0 mg/kg/injection, schedule: Q01DX009 (ip), vehicle: Klucel (hydroxypropylcellulose) (HPC)); 93 % of control (dose: 100.0 mg/kg/injection, schedule: Q04DX002 (ip), vehicle: Klucel (hydroxypropylcellulose) (HPC)); 98 % of control (dose: 200.0 mg/kg/injection, schedule: Q01DX009 (ip), vehicle: Klucel (hydroxypropylcellulose) (HPC)); 96 % of control (dose: 200.0 mg/kg/injection, schedule: Q04DX002 (ip), vehicle: Klucel (hydroxypropylcellulose) (HPC)); 94 % of control (dose: 400.0 mg/kg/injection, schedule: Q01DX009 (ip), vehicle: Klucel (hydroxypropylcellulose) (HPC)); 93 % of control (dose: 400.0 mg/kg/injection, schedule: Q04DX002 (ip), vehicle: Klucel (hydroxypropylcellulose) (HPC)).
In the case of `Nc1ncnc2c1c(-c1ncn[nH]1)cn2C1OC(CO)C(O)C1O` (stereo not drawn), the T/C is, setting by setting: (dose: 0.09 mg/kg/injection, schedule: Q01DX009 (ip), vehicle: saline) 119 % of control; (dose: 0.19 mg/kg/injection, schedule: Q01DX009 (ip), vehicle: saline) 119 % of control; (dose: 0.39 mg/kg/injection, schedule: Q01DX005 (ip), vehicle: saline) 119 % of control.
As for `COC(=O)C1c2ccccc2-c2ccc(N3C(=O)C=CC3=O)cc21` (stereo not drawn), the T/C runs as follows: under setting [10], 107 % of control; under setting [12], 104 % of control; (dose: 400.0 mg/kg/injection, schedule: Q04DX003 (ip), vehicle: saline with Tween-80) 115 % of control.

Source of the values: PubChem BioAssay AID248 (DTP/NCI, 2004).
